Data taken from BigSolDB 2.1.

O=P1(c2cc(O)ccc2O)Oc2ccccc2-c2ccccc21 (configuration not stated)
Settings	solubility (mole fraction)
in 2-ethoxyethanol, 293.15 K	0.000896
in 2-ethoxyethanol, 298.15 K	0.0012
in 2-ethoxyethanol, 302.98 K	0.00157
in 2-ethoxyethanol, 308 K	0.00207
in 2-ethoxyethanol, 313 K	0.00248
in 2-ethoxyethanol, 317.8 K	0.00347
in 2-ethoxyethanol, 322.7 K	0.00439
in 2-ethoxyethanol, 327.65 K	0.00556
in 2-ethoxyethanol, 332.65 K	0.00702
in 2-ethoxyethanol, 337.6 K	0.00896
in 2-ethoxyethanol, 342.58 K	0.0109
in 2-ethoxyethanol, 347.4 K	0.0134
in 2-ethoxyethanol, 352.83 K	0.0168
in 2-ethoxyethanol, 357.7 K	0.0207
in 2-ethoxyethanol, 362.67 K	0.0249
in 2-ethoxyethanol, 367.65 K	0.0301
in acetone, 292.15 K	0.00153
in acetone, 297.15 K	0.00182
in acetone, 302.15 K	0.00226
in acetone, 307.85 K	0.00304
in acetone, 312.9 K	0.0037
in acetone, 317.65 K	0.00427
in acetone, 322.6 K	0.00551
in ethanol, 293.15 K	0.00205
in ethanol, 298.1 K	0.00224
in ethanol, 303.05 K	0.00241
in ethanol, 307.95 K	0.0027
in ethanol, 312.95 K	0.00282
in ethanol, 317.8 K	0.00309
in ethanol, 322.8 K	0.00332
in ethanol, 327.85 K	0.00352
in methanol, 293.15 K	0.00107
in methanol, 298 K	0.00128
in methanol, 302.9 K	0.0015
in methanol, 307.85 K	0.00182
in methanol, 312.84 K	0.00227
in methanol, 317.6 K	0.0026
in methanol, 322.63 K	0.00292
in water, 303 K	0.000139
in water, 307.95 K	0.000143
in water, 312.85 K	0.000151
in water, 317.6 K	0.000155
in water, 322.45 K	0.000165
in water, 327.65 K	0.000168
in water, 332.5 K	0.000175
in water, 337.55 K	0.000184
in water, 342.35 K	0.000189
